Experimental data as given in patent publication US20170042809A1, “STABLE LIPOSOMAL FORMULATIONS OF CARBONIC ANHYDRASE INHIBITORS FOR OCULAR DRUG DELIVERY” (Peregrine Ophthalmic PTE LTD., priority 2015, published 2017).
Structures can show the parent of a compound that is named as a salt.

Key:
[1] = In-vitro drug release by dialysis against PBS pH 7.4, HPLC; format: physicochemical; conditions: within 48 hours, dialysis (MWCO 8-10 kDal) against PBS pH 7.4
Description: Drug release studies were performed by dialysing a dorzolamide HCl solution and LipoDH prepared as described above in EXAMPLE 2 and EXAMPLE 3, respectively, against PBS at a pH of 7.4 and measuring the amount of dorzolamide released by HPLC.
Briefly, 1 mL of dorzolamide HCl solution and 1 ml LipoDH were each loaded into a dialysis tube (molecular weight cut-off of 8-10 kDal) before placing the tube into 40 mL of PBS in a 50 mL tube. The PBS in the tubes was sampled at 1, 4, 7, 24, 48, 72 and 96 hours at which time the dorzolamide concentration was measured by HPLC.
The cumulative drug release percentage vs release time for both dorzolamide HCl solution (unencapsulated) and LipoDH (encapsulated) was calculated and plotted. […] Without a doubt, encapsulation of dorzolamide in a liposome results in a formulation capable of sustained drug delivery.

[2] = Stability of LipoDH and dorzolamide HCl aqueous solution on storage at 5° C.; format: physicochemical
Description: The LipoDH formulation was described above in EXAMPLE 2. A dorzolamide HCl aqueous solution was prepared by dissolving 200 mg dorzolamide HCl in 20 mL of PBS. The dorzolamide content of both formulations was analyzed after storing them at 5° C. for 7 and 14 days. The temperature was monitored and recorded continuously to ensure stable temperature conditions.

cumulative drug release percentage [1]: 80%
degradation percentage ([2]; at 7 days, storage at 5° C.): 57.9%
degradation percentage, Start of Stability Test ([2]; start of stability test): 0.0%
drug content, Start of Stability Test ([2]; start of stability test): 9.5 mg/mL
degradation percentage, 7 Days Incubation ([2]; stored at 5° C. for 7 days): 57.9%
drug content, 7 Days Incubation ([2]; stored at 5° C. for 7 days): 4.0 mg/mL
degradation percentage, 14 Days Incubation ([2]; stored at 5° C. for 14 days): 58.9%
drug content, 14 Days Incubation ([2]; stored at 5° C. for 14 days): 3.9 mg/mL
SMILES: CCN[C@H]1C[C@H](C)S(=O)(=O)c2sc(S(N)(=O)=O)cc21 [dorzolamide HCl]
